According to ChEMBL document CHEMBL1125619, “Effect of fluorine substitution on the adrenergic properties of 3-(tert-butylamino)-1-(3,4-dihydroxyphenoxy)-2-propanol” (J Med Chem, 1991):

Assays:
[1] = target: Beta-1 adrenergic receptor (Cavia porcellus, UniProt B0FL73); assay: Agonistic activity (beta-1 adrenergic receptor) for the percent maximal increase in contraction rate of isolated guinea pig atria; assay type: functional
[2] = target: Beta-2 adrenergic receptor (Cavia porcellus, UniProt Q8K4Z4); assay: Agonistic activity (beta2- adrenergic) for the percent maximal relaxation of isolated guinea pig trachea; assay type: functional, tissue-based
[3] = target: Beta-1 adrenergic receptor (Rattus norvegicus, UniProt P18090)
Description: Compound was evaluated for the inhibition of binding of [3H]dihydroalprenolol from beta-1 adrenergic receptor of rat cerebral cortical membranes

[4] = target: Adrenergic receptor beta (Rattus norvegicus, UniProt P18090+P10608+P26255); assay: Beta adrenergic receptor agonistic activity for the stimulation of accumulation of cyclic AMP in cultured C6 glioma cells; assay type: functional, cell-based

Chain of Beta-1 adrenergic receptor (Cavia porcellus, UniProt B0FL73) (B0FL73 whole entry): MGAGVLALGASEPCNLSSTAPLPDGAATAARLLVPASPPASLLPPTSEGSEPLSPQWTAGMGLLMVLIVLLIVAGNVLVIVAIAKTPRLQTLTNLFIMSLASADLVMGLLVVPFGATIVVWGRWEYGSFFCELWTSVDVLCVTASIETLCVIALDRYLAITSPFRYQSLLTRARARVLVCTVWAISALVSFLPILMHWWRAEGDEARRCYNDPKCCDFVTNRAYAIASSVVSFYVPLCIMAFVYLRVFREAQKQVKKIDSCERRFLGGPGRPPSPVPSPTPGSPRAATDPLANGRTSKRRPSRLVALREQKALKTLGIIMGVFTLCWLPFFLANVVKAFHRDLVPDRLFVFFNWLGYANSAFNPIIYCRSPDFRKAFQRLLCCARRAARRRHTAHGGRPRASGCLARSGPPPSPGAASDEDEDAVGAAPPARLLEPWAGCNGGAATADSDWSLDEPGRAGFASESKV
Chain of Beta-2 adrenergic receptor (Q8K4Z4 whole entry): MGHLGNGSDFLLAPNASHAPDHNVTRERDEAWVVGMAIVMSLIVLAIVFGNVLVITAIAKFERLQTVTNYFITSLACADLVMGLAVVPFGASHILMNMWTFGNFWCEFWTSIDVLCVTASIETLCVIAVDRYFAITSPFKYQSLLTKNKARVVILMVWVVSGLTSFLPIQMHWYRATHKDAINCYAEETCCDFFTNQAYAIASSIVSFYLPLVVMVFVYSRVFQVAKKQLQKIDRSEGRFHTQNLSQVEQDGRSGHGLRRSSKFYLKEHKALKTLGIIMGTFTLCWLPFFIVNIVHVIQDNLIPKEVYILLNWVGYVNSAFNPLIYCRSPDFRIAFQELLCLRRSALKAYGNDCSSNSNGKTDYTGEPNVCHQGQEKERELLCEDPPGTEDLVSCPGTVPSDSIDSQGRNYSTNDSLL
Chain of Beta-1 adrenergic receptor (Rattus norvegicus, UniProt P18090) (P18090 whole entry): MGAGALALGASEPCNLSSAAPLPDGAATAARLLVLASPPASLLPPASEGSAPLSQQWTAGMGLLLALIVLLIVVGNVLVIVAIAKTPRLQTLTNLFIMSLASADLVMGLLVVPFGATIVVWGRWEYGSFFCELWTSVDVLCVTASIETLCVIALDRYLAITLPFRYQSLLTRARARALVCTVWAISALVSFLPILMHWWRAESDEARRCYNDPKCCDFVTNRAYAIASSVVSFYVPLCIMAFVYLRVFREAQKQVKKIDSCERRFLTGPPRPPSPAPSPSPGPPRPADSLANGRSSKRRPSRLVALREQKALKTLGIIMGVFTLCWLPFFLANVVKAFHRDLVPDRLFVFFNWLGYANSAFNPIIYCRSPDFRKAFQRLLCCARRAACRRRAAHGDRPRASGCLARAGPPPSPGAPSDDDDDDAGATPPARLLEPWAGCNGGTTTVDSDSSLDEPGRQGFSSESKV

## CC(C)(C)NCC(O)COc1ccc(O)c(O)c1F (stereo not drawn)
[1]
  EC50: 8.6 nM
[2]
  EC50: 38 nM
[3]
  Ki: 60 nM
[4]
  EC50: 9.2 nM

## CC(C)(C)NCC(O)COc1cc(O)c(O)cc1F (stereo not drawn)
[1]
  EC50: 175 nM
[2]
  EC50: > 10000 nM
[3]
  Ki: 87000 nM
[4]
  EC50: >> 10000 nM

## CC(C)(C)NCC(O)COc1ccc(O)c(O)c1 (stereo not drawn)
[1]
  EC50: 4.7 nM
[2]
  EC50: 130 nM
[3]
  Ki: 120 nM
[4]
  EC50: 8.2 nM

## CC(C)NCC(O)c1ccc(O)c(O)c1 (stereo not drawn) [ISOPROTERENOL]
[2]
  EC50: 58 nM
